# Measurements taken from patent US10138222B2, “Substituted benzamides as RIPK2 inhibitors” (Boehringer Ingelheim International GmbH, priority 2016, dated 2018).
# Molecular target: RIPK2 (Homo sapiens (Human), UniProt O43353)
# Experiment: RIPK2 inhibition, ADP-Glo Kinase Assay
# Assay type: biochemical
# Conditions: 8His-RIPK2 FL enzyme 8 nM, ATP 5 μM, 15 minutes pre-incubation, 60 minutes at 37° C., luminescence
# Outline: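 Full-length 8His-RIPK2 (8 nM) preincubated 15 min at RT with compound (1% DMSO), then 5 μM ATP added for 60 min at 37 °C in HEPES pH 7.5 buffer with Mg2+/Mn2+. ADP measured by ADP-Glo luminescence; activity expressed as % of vehicle control, no-enzyme wells as low control.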
# Sequence of RIPK2 (O43353 whole entry): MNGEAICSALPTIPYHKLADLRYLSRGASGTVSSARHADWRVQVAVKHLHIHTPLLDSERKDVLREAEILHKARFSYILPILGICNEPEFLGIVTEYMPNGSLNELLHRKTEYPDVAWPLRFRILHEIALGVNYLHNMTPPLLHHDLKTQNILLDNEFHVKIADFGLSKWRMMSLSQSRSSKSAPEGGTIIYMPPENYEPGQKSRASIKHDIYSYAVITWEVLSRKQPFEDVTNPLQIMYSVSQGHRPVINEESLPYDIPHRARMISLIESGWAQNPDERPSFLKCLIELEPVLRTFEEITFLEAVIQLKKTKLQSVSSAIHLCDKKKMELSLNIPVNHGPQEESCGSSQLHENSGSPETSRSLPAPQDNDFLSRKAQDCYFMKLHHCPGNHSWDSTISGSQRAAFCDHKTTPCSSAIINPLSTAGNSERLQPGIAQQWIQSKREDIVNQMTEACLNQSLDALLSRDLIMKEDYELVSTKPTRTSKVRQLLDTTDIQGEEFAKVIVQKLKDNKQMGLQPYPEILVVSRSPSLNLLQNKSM
row,SMILES,IC50 [nM]
1,"Cc1ccc(C(=O)NC2CC2)cc1-c1cnn(-c2cncc(OC3CCC(C#N)C3)c2)c1 (stereo not shown) [Example 151, 3-(1-{5-[(3-cyanocyclopentyl)oxy]pyridin-3-yl}-1H-pyrazol-4-yl)-N-cyclopropyl-4-methylbenzamide]",6.4
2,"Cc1ccc(C(=O)NC2CC2)cc1-c1cnn(-c2cncc(OC3CC(CO)(CO)C3)c2)c1 [Example 152, 3-(1-{5-[3,3-bis(hydroxymethyl)cyclobutoxy]pyridin-3-yl}-1H-pyrazol-4-yl)-N-cyclopropyl-4-methylbenzamide]",4.2
3,"Cc1ccc(C(=O)NC2CC2)cc1-c1cnn(-c2cncc(NC3CCN(C(C)CCO)CC3)c2)c1 (stereo not shown) [Example 153, N-cyclopropyl-3-[1-(5-{[1-(4-hydroxybutan-2-yl)piperidin-4-yl]amino}pyridin-3-yl)-1H-pyrazol-4-yl]-4-methylbenzamide]",1.6
4,"Cc1ccc(C(=O)NC2CC2)cc1-c1cnn(-c2cncc(NC3CCN(CC4CCOC4)CC3)c2)c1 (stereo not shown) [Example 154, N-cyclopropyl-4-methyl-3-[1-(5-{[1-(oxolan-3-ylmethyl)piperidin-4-yl]amino}pyridin-3-yl)-1H-pyrazol-4-yl]benzamide]",1.8
5,"Cc1ccc(C(=O)NC2CC2)cc1-c1cnn(-c2cncc(NC3CCN(CC4CCOCC4)CC3)c2)c1 [Example 155, N-cyclopropyl-4-methyl-3-[1-(5-{[1-(oxan-4-ylmethyl)piperidin-4-yl]amino}pyridin-3-yl)-1H-pyrazol-4-yl]benzamide]",1.7
6,"COCC(C)N1CCC(Nc2cncc(-n3cc(-c4cc(C(=O)NC5CC5)ccc4C)cn3)c2)CC1 (stereo not shown) [Example 156, N-cyclopropyl-3-[1-(5-{[1-(1-methoxypropan-2-yl)piperidin-4-yl]amino}pyridin-3-yl)-1H-pyrazol-4-yl]-4-methylbenzamide]",1.6

# Continued, values first:
row,IC50 [nM],SMILES
1,1.9,"Cc1ccc(C(=O)NC2CC2)cc1-c1cnn(-c2cncc(NC3CCN(C(C)CO)CC3)c2)c1 (stereo not shown) [Example 157, N-cyclopropyl-3-[1-(5-{[1-(1-hydroxypropan-2-yl)piperidin-4-yl]amino}pyridin-3-yl)-1H-pyrazol-4-yl]-4-methylbenzamide]"
2,1.2,"CC(=O)N1CCC(N2CCC(Nc3cncc(-n4cc(-c5cc(C(=O)NC6CC6)ccc5C)cn4)c3)CC2)CC1 [Example 158, 3-[1-(5-{[1-(1-acetylpiperidin-4-yl)piperidin-4-yl]amino}pyridin-3-yl)-1H-pyrazol-4-yl]-N-cyclopropyl-4-methylbenzamide]"
3,1.8,"Cc1ccc(C(=O)NC2CC2)cc1-c1cnn(-c2cncc(NC3CCN(C4CCOC4C)CC3)c2)c1 (stereo not shown) [Example 159, N-cyclopropyl-4-methyl-3-[1-(5-{[1-(2-methyloxolan-3-yl)piperidin-4-yl]amino}pyridin-3-yl)-1H-pyrazol-4-yl]benzamide]"
4,1.1,"COC1CCC(N2CCC(Nc3cncc(-n4cc(-c5cc(C(=O)NC6CC6)ccc5C)cn4)c3)CC2)CC1 (stereo not shown) [Example 160, N-cyclopropyl-3-[1-(5-{[1-(4-methoxycyclohexyl)piperidin-4-yl]amino}pyridin-3-yl)-1H-pyrazol-4-yl]-4-methylbenzamide]"
5,1.5,"Cc1ccc(C(=O)NC2CC2)cc1-c1cnn(-c2cncc(NC3CCN(C4CCCOC4)CC3)c2)c1 (stereo not shown) [Example 161, N-cyclopropyl-4-methyl-3-[1-(5-{[1-(oxan-3-yl)piperidin-4-yl]amino}pyridin-3-yl)-1H-pyrazol-4-yl] benzamide]"
6,2.3,"Cc1ccc(C(=O)NC2CC2)cc1-c1cnn(-c2cncc(NC3CCN(C4CCOCC4)CC3)c2)c1 [Example 162, N-cyclopropyl-4-methyl-3-[1-(5-{[1-(oxan-4-yl)piperidin-4-yl]amino}pyridin-3-yl)-1H-pyrazol-4-yl] benzamide]"
7,1.1,"COC1COCCC1N1CCC(Nc2cncc(-n3cc(-c4cc(C(=O)NC5CC5)ccc4C)cn3)c2)CC1 (stereo not shown) [Example 163, N-cyclopropyl-3-[1-(5-{[1-(3-methoxyoxan-4-yl)piperidin-4-yl]amino}pyridin-3-yl)-1H-pyrazol-4-yl]-4-methylbenzamide]"
